Source: US20120015887A1, “SYNTHETIC PEPTIDE AND USES THEREOF” (priority 2009, published 2012)
Bridge positions count the residues as written; N and C are the ends. Side chains are listed from the residue outwards. Peptide text beside a SMILES is read from it. I, II: the chains in the order shown.

Tests used:
[1] = Body weight, spleen weight and tolerability in Kunming mice with transplanted H22 tumor; details: for Weight of spleen / Average weight (X ± S, g) End / Average weight (X ± S, g) Start: 2 mg/kg, ip × 5; for Weight of spleen: end of test; for Average weight (X ± S, g) End: End of test; for Average weight (X ± S, g) Start: Start of test
[2] = in vivo
[3] = The 3rd day after administration, 2 mg/kg ip
[4] = The 5th day after administration, 2 mg/kg ip
[5] = The 7th day after administration, 2 mg/kg ip
[6] = The 9th day after administration, 2 mg/kg ip
[7] = The 11th day after administration, 2 mg/kg ip

| SMILES | Weight of spleen [1] [g] | Average weight (X ± S, g) End [1] [g] | Average weight (X ± S, g) Start [1] [g] | Body weight/g [1, 3] [g] | Body weight/g [1, 4] [g] | Body weight/g [1, 5] [g] | Body weight/g [1, 6] [g] | Body weight/g [1, 7] [g] | Body weight/g ([1]; The day without administration) [g] | Body weight growth compared with the blank control group ([1]; 2 mg/kg ip, test duration) | Death / acute toxicity in tumor-bearing mice ([1]; 2 mg/kg ip, test duration) | Side effect in tumor-bearing mice ([1]; 2 mg/kg ip, test duration) | Abnormity or side effect in test chickens [2] |
| --- | --- | --- | --- | --- | --- | --- | --- | --- | --- | --- | --- | --- | --- |
| C[C@@H](O)[C@H](N)C(=O)N[C@@H](CCCCN)C(=O)N1CCC[C@H]1C(=O)N[C@@H](CCCNC(=N)N)C(=O)O [TKPR, Thr-Lys-Pro-Arg, reference compound] (H-TKPR-OH) | 0.32 ± 0.09 | 29.6 ± 1.7 | 15.2 ± 0.7 | 18.9 ± 0.7 | 21.5 ± 1.1 | 24.4 ± 1.3 | 27.0 ± 1.5 | 29.6 ± 1.7 | 15.2 ± 0.7 |  |  |  |  |
| C[C@@H](O)[C@H](N)C(=O)N[C@@H](CCCCN)C(=O)N1CCC[C@H]1C(=O)N[C@@H](CCCNC(=N)N)C(=O)NCCCC[C@H](NC(=O)[C@H](CCCNC(=N)N)NC(=O)[C@@H]1CCCN1C(=O)[C@H](CCCCN)NC(=O)[C@@H](N)[C@@H](C)O)C(=O)NCCCC[C@H](NC(=O)[C@H](CCCCNC(=O)[C@H](CCCNC(=N)N)NC(=O)[C@@H]1CCCN1C(=O)[C@H](CCCCN)NC(=O)[C@@H](N)[C@@H](C)O)NC(=O)[C@H](CCCNC(=N)N)NC(=O)[C@@H]1CCCN1C(=O)[C@H](CCCCN)NC(=O)[C@@H](N)[C@@H](C)O)C(=O)NCC(=O)O [(TKPR)4>K2>K-G] (I: H-TKPRK([Arg-Pro-Lys-Thr])KG-OH / II: H-TKPRK([Arg-Pro-Lys-Thr]); amide I:6-II:C) | 0.31 ± 0.08 | 30.6 ± 3.2 | 14.8 ± 0.8 | 19.6 ± 0.8 | 23.3 ± 1.0 | 26.2 ± 1.9 | 28.5 ± 2.5 | 30.6 ± 3.2 | 14.8 ± 0.8 | the same as that of the blank control group | no acute toxicity reactions occurred | no obvious side effect | no abnormity or side effect |
| C[C@@H](O)[C@H](N)C(=O)N[C@@H](CCCCN)C(=O)N1CCC[C@H]1C(=O)N[C@@H](CCCNC(=N)N)C(=O)NCCCC[C@H](NC(=O)[C@H](CCCNC(=N)N)NC(=O)[C@@H]1CCCN1C(=O)[C@H](CCCCN)NC(=O)[C@@H](N)[C@@H](C)O)C(=O)NCCCC[C@H](NC(=O)[C@H](CCCCNC(=O)[C@H](CCCNC(=N)N)NC(=O)[C@@H]1CCCN1C(=O)[C@H](CCCCN)NC(=O)[C@@H](N)[C@@H](C)O)NC(=O)[C@H](CCCNC(=N)N)NC(=O)[C@@H]1CCCN1C(=O)[C@H](CCCCN)NC(=O)[C@@H](N)[C@@H](C)O)C(=O)O [(TKPR)4>K2>K, reference compound] (I: H-TKPRK([Arg-Pro-Lys-Thr])K-OH / II: H-TKPRK([Arg-Pro-Lys-Thr]); amide I:6-II:C) |  |  |  |  |  |  |  |  |  |  |  |  | no abnormity or side effect |
| C[C@@H](O)[C@H](N)C(=O)N[C@@H](CCCCN)C(=O)N1CCC[C@H]1C(=O)N[C@@H](CCCNC(=N)N)C(=O)NCCCC[C@H](NC(=O)[C@H](CCCNC(=N)N)NC(=O)[C@@H]1CCCN1C(=O)[C@H](CCCCN)NC(=O)[C@@H](N)[C@@H](C)O)C(=O)NCCCC[C@H](NC(=O)[C@H](CCCCNC(=O)[C@H](CCCNC(=N)N)NC(=O)[C@@H]1CCCN1C(=O)[C@H](CCCCN)NC(=O)[C@@H](N)[C@@H](C)O)NC(=O)[C@H](CCCNC(=N)N)NC(=O)[C@@H]1CCCN1C(=O)[C@H](CCCCN)NC(=O)[C@@H](N)[C@@H](C)O)C(=O)N[C@H](C(=O)N[C@@H](CCCCN)C(=O)N1CCC[C@H]1C(=O)N[C@@H](CCCNC(=N)N)C(=O)O)[C@@H](C)O [(TKPR)4>K2>K-TKPR] (I: H-TKPRK([Arg-Pro-Lys-Thr])KTKPR-OH / II: H-TKPRK([Arg-Pro-Lys-Thr]); amide I:6-II:C) |  |  |  |  |  |  |  |  |  |  |  |  | no abnormity or side effect |
